Laboratory results published in patent US20240189292A1 (priority 2021, published 2024).
Read-outs that look alike come from different tables or passages of the source.

Experiment: in vivo
Design: species or system SD rats
Details: male, SD, rat, plasma; for AUC: read-out: Area Under Curve AUC; for clearance: read-out: Clearance Rate Cl; for C0: read-out: Initial Concentration C0; for Vd: read-out: Volume of Distribution Vd; for bioavailability: read-out: Bioavailability F; for Cmax: read-out: Peak Concentration Cmax
[1] = iv, 0.2 mg/kg, read-out: Half-life T1/2 (converted)
[2] = po, 1 mg/kg, read-out: Peak Concentration Time T1/2 (converted)

| AUC (iv, 0.2 mg/kg) [µM·h] | clearance (iv, 0.2 mg/kg) [mL/min/kg] | half-life [1] [h] | C0 (iv, 0.2 mg/kg) [nM] | Vd (iv, 0.2 mg/kg) [L/kg] | AUC (po, 1 mg/kg) [µM·h] | bioavailability (po, 1 mg/kg) [%] | Cmax (po, 1 mg/kg) [nM] | half-life [2] [h] | AUC (intravenous, 0.2 mg/kg) [µM·h] | clearance (intravenous, 0.2 mg/kg) [mL/min/kg] | half-life (intravenous, 0.2 mg/kg, read-out: Half-life T1/2 (converted)) [h] | C0 (intravenous, 0.2 mg/kg) [nM] | Vd (intravenous, 0.2 mg/kg) [L/kg] | SMILES |
| --- | --- | --- | --- | --- | --- | --- | --- | --- | --- | --- | --- | --- | --- | --- |
| 1.33 | 8.11 | 2.31 | 773 | 1.6 | 7.32 | 110 | 1380 | 4.81 |  |  |  |  |  | C[C@H](NC1=CC(=O)C2(CCCC2)C(=O)N1)c1ccccc1 [Compound 3] |
| 3.53 | 2.93 | 3.86 | 3700 | 0.885 | 14.8 | 88.1 | 2140 | 5.96 |  |  |  |  |  | C[C@H](NC1=CC(=O)C2(CCCC2)C(=O)N1)c1cccc(Cl)c1 [Compound 7] |
| 2.11 | 4.78 | 5.93 | 4820 | 1.73 | 8.11 | 76.7 | 1940 | 7.35 |  |  |  |  |  | Cc1ccc(F)c([C@H](C)NC2=CC(=O)C3(CCCC3)C(=O)N2)c1 [Compound 9] |
|  |  |  |  |  | 7.93 |  | 1310 | 4.83 | 1.29 | 6 | 6.37 | 1460 | 2.7 | C[C@H](NC1=CC(=O)C2(CCCC2)C(=O)N1)c1cc(F)ccc1F [Compound 10] |
